In brackets after ≈: the same amount, converted by molar mass.
Experiments:
Assay type in all cases: cell-based
Streptococcus faecium 8b = experiment: MIC, standard strain 3; settings: Enterococcus faecium; S. faecium 8b; two-fold dilution, Muller Hinton agar, 10^7 CFU/ml, 37° C., 18 hours; read-out: Minimal Inhibitory Concentration(MIC)
Method: (§1) In order to illustrate antibiotic effectiveness of the compounds of the present invention, the minimal inhibitory concentrations (MIC's) of the representative compounds were determined against standard strains and compared with ceftazidime and cefpirome, which were used as control compounds.
(§2) The MIC values were taken by employing a two-fold dilution method: that is, two-fold serial dilutions of each of the test compounds were made from initial concentration of […]; each 1.5 ml of them was dispersed in 13.5 ml of Muller Hinton agar medium to adjust to […]; the standard test strain which had the concentration of 10^7 CFU/ml was inoculated by medium;and these were incubated at 37° C. for 18 hours.
(§3) The test used twenty kinds of standard test strains which induced urinary tract infections, respiratory organ infections, skin soft tissue infections, plasma infections, gastrointestinal infections, central nervous system infections, most of which produce β-lactamase. The standard test strains used are as follows:
3. Streptococcus faecium 8b

[1] = test system: Staphylococcus aureus 285; experiment: MIC, standard strain 5; settings: Staphylococcus aureus; S. aureus 285; two-fold dilution, Muller Hinton agar, 10^7 CFU/ml, 37° C., 18 hours; read-out: Minimal Inhibitory Concentration(MIC)
Method: as §1, §2, §3
5. Staphylococcus aureus 285

Escherichia coli 0 55 = experiment: MIC, standard strain 7; settings: 055, E. coli 0 55, two-fold dilution, Muller Hinton agar, 10^7 CFU/ml, 37° C., 18 hours, read-out: Minimal Inhibitory Concentration(MIC)
Method: as §1, §2
(§4) The test used twenty kinds of standard test strains which induced urinary tract infections, respiratory organ infections, skin soft tissue infections, plasma infections, gastrointestinal infections, central nervous system infections, most of which produce β-lactamase.

Escherichia coli DC 0 = experiment: MIC, standard strain 8; settings: DC0, E. coli DC 0, two-fold dilution, Muller Hinton agar, 10^7 CFU/ml, 37° C., 18 hours, read-out: Minimal Inhibitory Concentration(MIC)
Method: as §1, §2, §4

[2] = test system: Pseudomonas aeruginosa 9.027; experiment: MIC, standard strain 12; settings: Pseudomonas aeruginosa; P. aeruginosa 9.027; two-fold dilution, Muller Hinton agar, 10^7 CFU/ml, 37° C., 18 hours; read-out: Minimal Inhibitory Concentration(MIC)
Method: as §1, §2, §3
12. Pseudomonas aeruginosa 9.027

[3] = test system: Pseudomonas aeruginosa 1592 E; experiment: MIC, standard strain 13; settings: P. aeruginosa 1592 E, two-fold dilution, Muller Hinton agar, 10^7 CFU/ml, 37° C., 18 hours, read-out: Minimal Inhibitory Concentration(MIC)
Method: as §1, §2, §3
13. Pseudomonas aeruginosa 1592 E

[4] = test system: Pseudomonas aeruginosa 1771M; experiment: MIC, standard strain 15; settings: 18 h, read-out: Minimal Inhibitory Concentration(MIC)
Method: as §1, §2, §3
15. Pseudomonas aeruginosa 1771M

Salmonella typhimurium = experiment: MIC, standard strain 16; settings: Salmonella enterica; S. typhimurium; two-fold dilution, Muller Hinton agar, 10^7 CFU/ml, 37° C., 18 hours; read-out: Minimal Inhibitory Concentration(MIC)
Method: as §1, §2, §3
16. Salmonella typhimurium

[5] = test system: Enterobacter cloacae P 99; experiment: MIC, standard strain 19; settings: P99, 18 h, read-out: Minimal Inhibitory Concentration(MIC)
Method: as §1, §2, §3
19. Enterobacter cloacae P 99

[6] = test system: Enterobacter cloacae 1321 E; experiment: MIC, standard strain 20; settings: E. cloacae 1321 E, two-fold dilution, Muller Hinton agar, 10^7 CFU/ml, 37° C., 18 hours, read-out: Minimal Inhibitory Concentration(MIC)
Method: as §1, §2, §3
20. Enterobacter cloacae 1321 E

ATCC = experiment: MIC, clinically separated strains; settings: 18 h; 20 strains
Method: as §2

D Streptococcus I = experiment: MIC, clinically separated strains; settings: 18 h
Method: as §2

Enterobactercloacas = experiment: MIC, clinically separated strains; settings: Enterobacter cloacae, 18 h, 20 clinical strains
Method: as §2

Enterococcus I = experiment: MIC, clinically separated strains; settings: 18 h
Method: as §2

Escherichia coli = experiment: MIC, clinically separated strains; settings: 18 h
Method: as §2

Klebsiella oxytoca = experiment: MIC, clinically separated strains; settings: 18 h
Method: as §2

Methicillin Resistant = experiment: MIC, clinically separated strains; settings: 18 h, 19 clinical strains
Method: as §2

Morganella morganii = experiment: MIC, clinically separated strains; settings: 18 h
Method: as §2

Proteus mirabilis = experiment: MIC, clinically separated strains; settings: 18 h
Method: as §2

Proteus vulgaris = experiment: MIC, clinically separated strains; settings: 18 h
Method: as §2

Providencia rettgeri = experiment: MIC, clinically separated strains; settings: 18 h
Method: as §2

Pseudomonas II = experiment: MIC, clinically separated strains; settings: 18 h
Method: as §2

Pseudomonas I = experiment: MIC, clinically separated strains; settings: 18 h
Method: as §2

MRSA(Yonsei Univ.) = experiment: MIC, clinically separated strains; design: range of MIC: unit not given here
Method: as §2

Streptococcus I = experiment: MIC, clinically separated strains; design: range of MIC: unit not given here; settings: 20 clinical strains
Method: as §2

[7] = read-out: range of MIC, 20 clinical strains
[8] = read-out: range of MIC, 5 clinical strains
[9] = Staphylococcus aureus, MRSA, 18 h, 17 clinical strains

CO/N=C(\C(=O)N[C@@H]1C(=O)N2C(C(=O)[O-])=C(C[n+]3ccc(C(N)=O)c4c3CCC4)CS[C@H]12)c1csc(N)n1 [Example 3]
MIC (Streptococcus faecium 8b): 12500 µg/mL (≈ 22400 µM)
MIC [1]: 781 µg/mL (≈ 1400 µM)
MIC (Escherichia coli 0 55): 31 µg/mL (≈ 55.6 µM)
MIC (Escherichia coli DC 0): 25 µg/mL (≈ 44.8 µM)
MIC [2]: 1560 µg/mL (≈ 2800 µM)
MIC [3]: 1560 µg/mL (≈ 2800 µM)
MIC [4]: 195 µg/mL (≈ 350 µM)
MIC (Salmonella typhimurium): 25 µg/mL (≈ 44.8 µM)
MIC [5]: 3120 µg/mL (≈ 5600 µM)
MIC [6]: 7 µg/mL (≈ 12.6 µM)
MIC50 (ATCC): 0.098 µg/mL (≈ 0.176 µM)
MIC90 (ATCC): 25 µg/mL (≈ 44.8 µM)
MIC50 (D Streptococcus I; 20 clinical strains): 12.5 µg/mL (≈ 22.4 µM)
MIC90 (D Streptococcus I; 20 clinical strains): 25 µg/mL (≈ 44.8 µM)
MIC (D Streptococcus I; [7]): 12.5 to 100 µg/mL (≈ 22.4 to 179 µM)
MIC (Enterobactercloacas; read-out: range of MIC): 0.013 to 1.56 µg/mL (≈ 0.0233 to 2.8 µM)
MIC50 (Enterobactercloacas): 0.025 µg/mL (≈ 0.0448 µM)
MIC90 (Enterobactercloacas): 0.049 µg/mL (≈ 0.0879 µM)
MIC50 (Enterococcus I; 20 clinical strains): 0.025 µg/mL (≈ 0.0448 µM)
MIC90 (Enterococcus I; 20 clinical strains): 0.049 µg/mL (≈ 0.0879 µM)
MIC (Enterococcus I; [7]): 0.013 to 0.195 µg/mL (≈ 0.0233 to 0.35 µM)
MIC50 (Escherichia coli; 20 clinical strains): 0.025 µg/mL (≈ 0.0448 µM)
MIC90 (Escherichia coli; 20 clinical strains): 0.049 µg/mL (≈ 0.0879 µM)
MIC (Escherichia coli; [7]): 0.025 to 0.391 µg/mL (≈ 0.0448 to 0.701 µM)
MIC50 (Klebsiella oxytoca; 20 clinical strains): 0.013 µg/mL (≈ 0.0233 µM)
MIC90 (Klebsiella oxytoca; 20 clinical strains): 0.098 µg/mL (≈ 0.176 µM)
MIC (Klebsiella oxytoca; [7]): 0.007 to 0.391 µg/mL (≈ 0.0126 to 0.701 µM)
MIC (Methicillin Resistant; read-out: range of MIC): 0.781 to 100 µg/mL (≈ 1.4 to 179 µM)
MIC50 (Methicillin Resistant): 6.25 µg/mL (≈ 11.2 µM)
MIC90 (Methicillin Resistant): 50 µg/mL (≈ 89.7 µM)
MIC50 (Morganella morganii; 5 clinical strains): 0.013 µg/mL (≈ 0.0233 µM)
MIC90 (Morganella morganii; 5 clinical strains): 0.025 µg/mL (≈ 0.0448 µM)
MIC (Morganella morganii; [8]): 0.013 to 0.025 µg/mL (≈ 0.0233 to 0.0448 µM)
MIC50 (Proteus mirabilis; 4 clinical strains): 0.013 µg/mL (≈ 0.0233 µM)
MIC90 (Proteus mirabilis; 4 clinical strains): 0.049 µg/mL (≈ 0.0879 µM)
MIC (Proteus mirabilis; read-out: range of MIC, 4 clinical strains): 0.007 to 0.049 µg/mL (≈ 0.0126 to 0.0879 µM)
MIC50 (Proteus vulgaris; 5 clinical strains): 0.025 µg/mL (≈ 0.0448 µM)
MIC90 (Proteus vulgaris; 5 clinical strains): 0.098 µg/mL (≈ 0.176 µM)
MIC (Proteus vulgaris; [8]): 0.025 to 0.098 µg/mL (≈ 0.0448 to 0.176 µM)
MIC50 (Providencia rettgeri; 6 clinical strains): 0.013 µg/mL (≈ 0.0233 µM)
MIC90 (Providencia rettgeri; 6 clinical strains): 0.049 µg/mL (≈ 0.0879 µM)
MIC (Providencia rettgeri; read-out: range of MIC, 6 clinical strains): 0.004 to 0.098 µg/mL (≈ 0.00717 to 0.176 µM)
MIC50 (Pseudomonas II): 1.56 µg/mL (≈ 2.8 µM)
MIC90 (Pseudomonas II): 6.25 µg/mL (≈ 11.2 µM)
MIC (Pseudomonas II; read-out: range of MIC): 0.781 to 12.5 µg/mL (≈ 1.4 to 22.4 µM)
MIC50 (Pseudomonas I): 3.12 µg/mL (≈ 5.6 µM)
MIC90 (Pseudomonas I): 6.25 µg/mL (≈ 11.2 µM)
MIC (Pseudomonas I; read-out: range of MIC): 0.781 to 12.5 µg/mL (≈ 1.4 to 22.4 µM)
antibiotic activities against MRSA(Yonsei Univ.), in words (MRSA(Yonsei Univ.)): unexpectedly potent antibiotic activities
range of MIC (MRSA(Yonsei Univ.); 17 clinical strains): 0.013-100.000
MIC50 (MRSA(Yonsei Univ.); [9]): 12.5 µg/mL (≈ 22.4 µM)
MIC90 (MRSA(Yonsei Univ.); [9]): 100 µg/mL (≈ 179 µM)
range of MIC (Streptococcus I): 0.007-25.000
MIC50 (Streptococcus I; Streptococcus, 18 h): 0.025 µg/mL (≈ 0.0448 µM)
MIC90 (Streptococcus I; Streptococcus, 18 h): 12.5 µg/mL (≈ 22.4 µM)
